# Data: the supplement of paper PMC11451515
# Test system: NOMO1
# Assay: cell viability relative to DMSO control; higher = less cytotoxic
# Conditions: 48 h
# Summary of the method: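 Library compounds in DMSO were pin-dosed into 1536-well plates (5 μl) holding NOMO1 or SEM (500 cells/well) or P12-Ichikawa (1000 cells/well) leukemia cells, across an 11-point threefold series of 47 μM to 0.79 nM. Each cell line had been adapted for at least four passages in each medium. CellTiter-Glo One luminescence was read after 48 h at 37°C. Viability is the per-plate percentage relative to DMSO wells, with cell-free wells as background.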
# [1] = HPLM + 10% dialyzed FBS, 0.000781 µM
# [2] = HPLM + 10% dialyzed FBS, 0.00234 µM
# [3] = HPLM + 10% dialyzed FBS, 0.00702 µM
# [4] = HPLM + 10% dialyzed FBS, 0.0211 µM
# [5] = HPLM + 10% dialyzed FBS, 0.0632 µM
# [6] = HPLM + 10% dialyzed FBS, 0.19 µM
# [7] = HPLM + 10% dialyzed FBS, 0.569 µM
# [8] = HPLM + 10% dialyzed FBS, 1.71 µM
# [9] = HPLM + 10% dialyzed FBS, 5.12 µM
# [10] = HPLM + 10% dialyzed FBS, 15.4 µM
# [11] = HPLM + 10% dialyzed FBS, 46.1 µM
# [12] = RPMI 5 mM glucose + 10% FBS, 0.000781 µM
# [13] = RPMI 5 mM glucose + 10% FBS, 0.00234 µM
# [14] = RPMI 5 mM glucose + 10% FBS, 0.00702 µM
# [15] = RPMI 5 mM glucose + 10% FBS, 0.0211 µM
# [16] = RPMI 5 mM glucose + 10% FBS, 0.0632 µM
# [17] = RPMI 5 mM glucose + 10% FBS, 0.19 µM
# [18] = RPMI 5 mM glucose + 10% FBS, 0.569 µM
# [19] = RPMI 5 mM glucose + 10% FBS, 1.71 µM
# [20] = RPMI 5 mM glucose + 10% FBS, 5.12 µM
# [21] = RPMI 5 mM glucose + 10% FBS, 15.4 µM
# [22] = RPMI 5 mM glucose + 10% FBS, 46.1 µM
# [23] = RPMI 5 mM glucose + 10% dialyzed FBS, 0.000781 µM
# [24] = RPMI 5 mM glucose + 10% dialyzed FBS, 0.00234 µM
# [25] = RPMI 5 mM glucose + 10% dialyzed FBS, 0.00702 µM
# [26] = RPMI 5 mM glucose + 10% dialyzed FBS, 0.0211 µM
# [27] = RPMI 5 mM glucose + 10% dialyzed FBS, 0.0632 µM
# [28] = RPMI 5 mM glucose + 10% dialyzed FBS, 0.19 µM
# [29] = RPMI 5 mM glucose + 10% dialyzed FBS, 0.569 µM
# [30] = RPMI 5 mM glucose + 10% dialyzed FBS, 1.71 µM
# [31] = RPMI 5 mM glucose + 10% dialyzed FBS, 5.12 µM
# [32] = RPMI 5 mM glucose + 10% dialyzed FBS, 15.4 µM
# [33] = RPMI 5 mM glucose + 10% dialyzed FBS, 46.1 µM
SMILES,cell viability [1] [%],cell viability [2] [%],cell viability [3] [%],cell viability [4] [%],cell viability [5] [%],cell viability [6] [%],cell viability [7] [%],cell viability [8] [%],cell viability [9] [%],cell viability [10] [%],cell viability [11] [%],cell viability [12] [%],cell viability [13] [%],cell viability [14] [%],cell viability [15] [%],cell viability [16] [%],cell viability [17] [%],cell viability [18] [%],cell viability [19] [%],cell viability [20] [%],cell viability [21] [%],cell viability [22] [%],cell viability [23] [%],cell viability [24] [%],cell viability [25] [%],cell viability [26] [%],cell viability [27] [%],cell viability [28] [%],cell viability [29] [%],cell viability [30] [%],cell viability [31] [%],cell viability [32] [%],cell viability [33] [%]
COC(=O)\C1=C\CCN(C)C1,125,115,111,102,101,124,135,115,113,112,109,84.7,94.8,96.5,91.3,85.3,94,110,97.4,93.6,87,99,95.7,96.3,98.9,95.7,107,97.4,92.5,97.6,88.9,102,103
CCCC1OC2C[C@H]3[C@@H]4CCC5=CC(=O)C=C[C@]5(C)[C@H]4C(O)C[C@]3(C)[C@]2(C(=O)CO)O1 (stereo not given in full),,,,,,,,,,,,106,105,107,111,107,104,106,103,100,97.5,46.7,99.5,119,106,114,110,102,105,115,97.1,95.3,63.7
C#CCN[C@@H]1CCc2ccccc21.CS(=O)(=O)O,107,93.4,108,109,91.7,90.3,96,82.6,93.9,71.3,43.2,89.6,97,92.7,87.9,94,88.1,91.1,84.2,84.2,96.5,67.2,86.1,99.9,105,99.8,106,101,93.7,107,85.1,90.6,81.8
CC(C)Oc1ccc(C(=O)N[C@H](CNC(=O)CN(C)C)Cc2ccc(-c3cn4cccc([C@H](C)O)c4n3)cc2)cc1Cl,123,131,108,123,103,99.8,113,32.6,33.1,23.6,32.5,104,107,112,113,113,98.5,87,24.8,19.7,14.6,21.6,107,124,112,125,113,109,100,39.4,25.6,20.1,24.8
N#C/C(C(=O)c1ccc(Cl)cc1Cl)=C1/NC(=O)c2ccc(Cl)cc2N1,117,108,122,128,130,117,114,105,109,102,106,105,119,111,109,105,111,103,102,94.5,95.1,98.2,113,114,114,104,118,114,107,103,110,103,105
O=[S+]([O-])(c1cccc2cnccc12)N1CCCNCC1,98.7,124,136,136,132,147,139,136,130,116,51,,,,,,,,,,,,,,,,,,,,,,
O=c1[nH]c(=O)n(C2CCCO2)cc1F (stereo not given),,,,,,,,,,,,10.4,124,108,116,105,131,106,110,116,111,109,,,,,,,,,,,
CCN1CCN(C(=O)Cc2ccc(Nc3ncc(F)c(Nc4ccc(C(=O)Nc5ccccc5Cl)cc4)n3)cc2)CC1,93.9,119,112,115,112,114,109,109,62.6,62.4,49.1,99.6,98.1,98,92.7,111,121,101,90.7,81.2,47.1,59.4,97.5,109,104,117,107,103,114,103,64.9,55.8,49
OC[C@H]1O[C@@H]2[C@@H](OC\3=N\C(=N)\C=C/[N@@]23)[C@@H]1O,103,129,125,114,130,129,109,62.6,30.4,19.8,6.81,119,122,112,111,119,125,130,103,33.7,22,8.44,116,122,120,106,118,125,90.5,67.1,23.3,16.8,9.9
Nc1ncnc2c1c(-c1cccc(OCc3ccccc3)c1)cn2C1CC(CN2CCCC2)C1 (stereo not given),113,133,124,124,141,134,119,90.4,94.2,78.1,36.2,,,,,,,,,,,,,,,,,,,,,,
CCN(c1ccccc1)c1cc(NC)[n+](C)c(C)n1,121,123,109,120,130,115,116,123,107,109,111,115,104,106,110,101,104,123,122,112,95.5,103,106,111,112,124,122,116,126,113,103,108,108
CC1(C)C(N(O)C(=O)Nc2ccc(Cl)cc2)N(c2ccc(Cl)cc2)C(=O)N1CC(=O)N/N=C/C=C/c1ccc([N+](=O)[O-])o1 (stereo not given),121,118,125,124,124,115,123,116,108,95.8,50.2,116,111,109,120,110,104,102,110,97.4,104,75.1,106,107,103,124,122,121,111,111,108,117,71.3
COc1cccc2c1CCCC2CCCN1CCN(C2CCCCC2)CC1 (stereo not given),97.9,105,99.9,106,114,138,111,105,96.7,99.7,57,102,107,109,100,99.5,103,103,94,96.2,89.7,66.2,89.2,100,98,92.7,93.1,104,92.9,94.8,109,87.9,58
O=C(/C=C/c1ccc(O)cc1)c1ccc(O)cc1O,138,116,117,110,104,126,128,97.2,106,82.4,46.8,112,105,101,109,113,110,119,98.8,103,96.1,86.6,120,103,109,106,107,110,110,88.4,102,109,70.2
CC/1=C(/N2[C@H](SC1)[C@H](NC(=O)C(N)C3=CC=CC=C3)C2=O)C(O)=O (stereo not given in full),106,118,118,137,135,136,145,152,137,106,141,,,,,,,,,,,,109,135,123,148,145,132,149,137,154,146,130
COc1ncc(-c2ccc3c(Nc4cc(Oc5cc(F)cc(F)c5)cc(C(=O)O)c4)c([S+](=O)([O-])NC4CC4)cnc3c2)c(OC)n1,112,111,91.1,106,113,98,95.7,99.3,86.5,77.7,87.2,96.6,102,89.9,95.6,100,84.1,98.3,92.3,81.9,87.7,85.3,97.2,94.4,94,89,92,102,89.7,86.9,81.1,79.7,75.6
